Counter-ions that a name gives are not always drawn.
Each molecule was assayed on production of IgE antibody (assay: Evaluation of inhibitory effect on production of IgE antibody (mouse splenic B cells, LPS + IL-4, ELISA)). Settings: B-cell, 168 h; test agent 10^−6 M; mouse (Balb/C) B cells cultured with LPS then mouse IL-4 for 7 days; IgE in culture supernatant by ELISA.
Type: cell-based
Experimental: A spleen was enucleated from a mouse (Balb/C, male, aged 8 weeks) and shredded in 0.3% BSA/HBSS to prepare single cells by means of a 200-mesh screen. Further, the single cells were hemolyzed by 0.75% ammonium chloride-17 mM Tris solution to prepare a splenocyte suspension (1×10^7/ml) using RPMI 1640 medium/25 mM HEPES/0.3% BSA. After the suspension was reacted with a rat anti-mouse Thy-1,2 monoclonal antibody (product of Cedarlane Co.) at 4° C. for 1 hour, the reaction mixture was centrifuged, and the sediment cells were suspended again (1×10^7/ml, RPMI/HEPES/BSA). After the suspension was then reacted with a low-cytotoxic rabbit complement (product of Cedarlane Co.) at 37° C. for 1 hour, killed cells were removed by specific gravity centrifugation using lympholyte M (product of Cedarlane Co.) to obtain a B cell fraction as viable cells.
After B cells (10^5/0.2 ml/well) were cultured for a day together with LPS (E. coli 026:B6, product of DIFCO Co.) using a 96-well plate, mouse IL-4 (product of Genzyme Co.) was added to conduct culture further for 7 days.
Each test agent was added on the first day of the culture, and the amount of IgE in a culture supernatant was measured by ELISA after the culture, thereby calculating out the inhibitory effect of the agent on the production of an IgE antibody.

Compared with `COc1cc(/C=C/C=C/C(=O)N2CCN(CCCN3CCN(C(=O)/C=C/C=C/c4cc(OC)c(OC)c(OC)c4)CC3)CC2)cc(OC)c1OC` [Example 3, 1,3-bis[4-[(E,E)-5-(3,4,5-Trimethoxyphenyl)-2,4-pentadienoyl]-1-piperazinyl]propane Dihydrochloride], `COc1cc(C#C/C=C/C(=O)N2CCN(CCCN3CCN(C(=O)/C=C/C#Cc4cc(OC)c(OC)c(OC)c4)CC3)CC2)cc(OC)c1OC` [Example 6, 1,3-bis[4-[(E)-5-(3,4,5-Trimethoxyphenyl)-2-penten-4-ynoyl]-1-piperazinyl]propane Dihydrochloride] is lower in inhibition at 1 µM: 100% for the first, 95% for the second.

Going from `COc1cc(-c2ccc(C(=O)N3CCN(CCCN4CCN(C(=O)c5ccc(-c6cc(OC)c(OC)c(OC)c6)cc5)CC4)CC3)cc2)cc(OC)c1OC` [Example 5, 1,3-bis[4-[4-(3,4,5-Trimethoxyphenyl)-benzoyl]-1-piperazinyl]propane Dihydrochloride] to `COc1cc(-c2ccc(C(=O)N3CCCN(CCCN4CCCN(C(=O)c5ccc(-c6cc(OC)c(OC)c(OC)c6)cc5)CC4)CC3)cc2)cc(OC)c1OC` [Example 23, 1,1′-Trimethylenedi[4-[4-(3,4,5-trimethoxyphenyl)benzoyl]hexahydro-1,4-diazepine]dihydrochloride], the inhibition at 1 µM falls from 95% to 85%.

Going from `CC(C)(C)c1ccc(/C=C/C=C/C(=O)N2CCN(CCCCCCCCN3CCN(C(=O)/C=C/C=C/c4ccc(C(C)(C)C)cc4)CC3)CC2)cc1` [Example 12, 1,8-bis[4-[(E,E)-5-(4-tert-Butylphenyl)-2,4-pentadienoyl]-1-piperazinyl]octane Dihydrochloride] to `CSc1ncccc1/C=C/C=C/C(=O)N1CCN(CCCCCCCCN2CCN(C(=O)/C=C/C=C/c3cccnc3SC)CC2)CC1` [Example 13, 1,8-bis[4-[(E,E)-5-(2-Methylthio-3-pyridyl)-2,4-pentadienoyl]-1-piperazinyl]octane Dihydrochloride], the inhibition at 1 µM rises from 90% to 95%.

Going from `COc1cc(-c2ccc(C(=O)N3CCN(Cc4ccc(CN5CCN(C(=O)c6ccc(-c7cc(OC)c(OC)c(OC)c7)cc6)CC5)cc4)CC3)cc2)cc(OC)c1OC` [Example 16, 1,4-bis[[4-[4-(3,4,5-Trimethoxyphenyl)benzoyl]-1-piperazinyl]methyl]benzene Dihydrochloride] to `COc1cc(-c2ccc(C(=O)N3CCC(N(C)CCN(C)C4CCN(C(=O)c5ccc(-c6cc(OC)c(OC)c(OC)c6)cc5)CC4)CC3)cc2)cc(OC)c1OC` [Example 37, N,N′-bis[1-[4-(3,4,5-Trimethoxyphenyl)benzoyl]-4-piperidinyl]-N,N′-dimethylethylenediamine Dihydrochloride], the inhibition at 1 µM rises from 65% to 100%.

First: O=C(/C=C/c1ccc2ccccc2c1)N1CCN(Cc2cccc(CN3CCN(C(=O)/C=C/c4ccc5ccccc5c4)CC3)n2)CC1 [Example 20, 2,6-bis[[4-[(E)-3-(2-Naphthyl)-2-propenoyl]-1-piperazinyl]methyl]pyridine]
Second: COc1cc2ccc(/C=C/C(=O)N3CCC(CN(C)CC4CCN(C(=O)/C=C/c5ccc6cc(OC)c(OC)c(OC)c6c5)CC4)CC3)cc2c(OC)c1OC [Example 36, N,N-bis[[1-[(E)-3-(6,7,8-Trimethoxy-2-naphthyl)-2-propenoyl]-4-piperidinyl]methyl]methylamine Hydrochloride]
The inhibition at 1 µM of the first is higher: 75% for the first, 60% for the second.

`COc1cc2c(cc1OC)C(C)(C)C(/C=C/C(=O)N1CCC(CCCC3CCN(C(=O)/C=C/C4=Cc5cc(OC)c(OC)cc5C4(C)C)CC3)CC1)=C2` [Example 27, 1,3-bis[1-[(E)-3-(5,6-Dimethoxy-1,1-dimethyl-2-indenyl)-2-propenoyl]-4-piperidinyl]propane] and `COc1cc(C#C/C=C/C(=O)N2CCC(CC(CC3CCN(C(=O)/C=C/C#Cc4cc(OC)c(OC)c(OC)c4)CC3)CN(C)C)CC2)cc(OC)c1OC` [Example 33, 1,3-bis[1-[(E)-5-(3,4,5-Trimethoxyphenyl)-2-penten-4-ynoyl]-4-piperidinyl]-2-[(dimethylamino)methyl]propane Hydrochloride] are the same in inhibition at 1 µM: 100% for the first, 100% for the second.

First: COc1cc(-c2cc(C(=O)N3CCC(CC(CC4CCN(C(=O)c5ccc(C)c(-c6cc(OC)c(OC)c(OC)c6)c5)CC4)N(C)C)CC3)ccc2C)cc(OC)c1OC [Example 30, 1,3-bis[1-[4-Methyl-3-(3,4,5-trimethoxyphenyl)benzoyl]-4-piperidinyl]-2-(dimethylamino)propane Hydrochloride]
Second: COc1ccc(C(=O)N2CCC(CN3CCN(CC4CCN(C(=O)c5ccc(OC)c(-c6cc(OC)c(OC)c(OC)c6)c5)CC4)CC3)CC2)cc1-c1cc(OC)c(OC)c(OC)c1 [Example 40, 1,4-bis[[1-[4-Methoxy-3-(3,4,5-trimethoxyphenyl)benzoyl]-4-piperidinyl]methyl]piperazine Dihydrochloride]
The inhibition at 1 µM of the first is higher: 100% for the first, 75% for the second.
